pEC50: −log10 of the molar value.

In one data set the test system is SARS-CoV-2. The data set can be described thus: Antiviral activity on SARS-CoV-2, viral replication (YFP) assay. As to conditions: Severe acute respiratory syndrome coronavirus 2, read-out: EC50 range. Format: cell-based.
A short description of data set [1]: in vivo. As to conditions: Han Wistar, rat. The procedure: Rats are provided with a catheter in the jugular vein (2-3 days prior to blood sampling). At each designated time point (0, 1, 2, 4, 8 and 24 h after dosing), 100 μL blood were collected into Li-heparin tubes, stored on ice until centrifugation (10 minutes at 3000 g, 4° C.) and plasma was prepared within 45 min after collection, frozen at −20° C. and stored at this temperature until processed for LC-MS analysis.

Data set [2] is described as follows: in vitro. The settings on record: human, microsomes.
Data set [3] in a line: in vivo. The settings on record: CC7BL/6J, mouse, po, 5 mg/kg. On the procedure:
The pharmacokinetics of the compounds of the present invention was evaluated in 3 male and 3 female mice (CC7BL/6J, 8 week old) after oral cassette dosing. Dose was 5 mg/kg, application volume was 5 mL/kg and vehicle was 5% Solutol, 95% NaCl solution (at 0.9% saline concentration). At each designated time point (0, 0.25, 0.5, 1, 2, 4, 8 h after dosing), 20 μL whole blood were collected from the tail vein into Li-heparin tubes, frozen on dry ice within 1-2 minutes of sampling and stored at −20° C. until processed for LC-MS analysis.

A short description of data set [4]: in vitro. The settings on record: male, rat, microsomes.

For `[2H]C([2H])([2H])Oc1cccc(-c2ccc(NC(=O)C3=C(C(=O)O)CCC3)c3c2CCC3)c1` [Example 12/1], the pEC50 in the data set with SARS-CoV-2 was > 5.00.
Same read-out and setting: to `[2H]C([2H])([2H])Oc1ccccc1-c1cc(F)c(NC(=O)C2=C(C(=O)O)CCC2)c(F)c1` [1/4] belongs > 5.00.
`[2H]C([2H])([2H])Oc1cccc(-c2cnc(NC(=O)C3=C(C(=O)O)CCC3)c(F)c2)c1` [Example 12, 2-((3-Fluoro-5-(3-(methoxy-d3)phenyl)pyridin-2-yl)carbamoyl)cyclopent-1-ene-1-carboxylic Acid]: in the data set with SARS-CoV-2, the pEC50 is > 5.00.
As to `[2H]C([2H])([2H])Oc1cccc(-c2ccc(NC(=O)C3=C(C(=O)O)CCC3)c3cnccc23)c1` [12/3], the pEC50 in the data set with SARS-CoV-2 is 4.30 to 4.60.
Regarding `[2H]C([2H])([2H])Oc1cccc(-c2ccc(NC(=O)C3=C(C(=O)O)CCC3)c3ccccc23)c1` [12/4], the negative logarithm of the EC50 (pEC50) in the data set with SARS-CoV-2 is 4.60 to 5.00.
`[2H]C([2H])([2H])Oc1cc(-c2cc(F)c(NC(=O)C3=C(C(=O)O)CCC3)c(F)c2)ccn1` [1/9]: the pEC50 with SARS-CoV-2 was 4.30 to 4.60.
On to `[2H]c1c([2H])c(F)c([2H])c(-c2cc(F)c(NC(=O)C3=C(C(=O)O)CCC3)c(F)c2)c1[2H]` [1/7], for which, in the data set on SARS-CoV-2, the pEC50 was > 5.00.
The same measure, in the same setting: to `[2H]C([2H])([2H])Oc1cccc(-c2cc(F)c(NC(=O)C3=C(C(=O)O)CSC3)c(F)c2)c1` [Example 10, 4-((3,5-Difluoro-3′-(methoxy-d3)-[1,1′-biphenyl]-4-yl)carbamoyl)-2,5-dihydro-thiophene-3-carboxylic Acid] belongs 4.60 to 5.00.
Regarding `[2H]C([2H])([2H])Oc1cccc(-c2cc(F)c(NC(=O)C3=C(C(=O)O)COC3)c(F)c2)c1` [Example 11, 4-((3,5-Difluoro-3′-(methoxy-d3)-[1,1′-biphenyl]-4-yl)carbamoyl)-2,5-dihydrofuran-3-carboxylic Acid], in the data set with SARS-CoV-2, the pEC50 was < 4.30.
On to `[2H]C([2H])([2H])Oc1cccc(-c2c(F)c(F)c(NC(=O)C3=C(C(=O)O)CCC3)c(F)c2F)c1` [1/2], for which the pEC50 in the data set on SARS-CoV-2 is > 5.00.
For `[2H]c1cc([2H])c(-c2ccc(NC(=O)C3=C(C(=O)O)CCC3)c(F)c2)c([2H])c1OC([2H])([2H])[2H]` [Example 2, 2-((3-Fluoro-3′-(methoxy-d3)-[1,1′-biphenyl]-4-yl-2′,4′,6′-d3)carbamoyl)cyclopent-1-ene-1-carboxylic Acid], in “in vivo [1]” (female, iv, 1 mg/kg), the “% AUCextra” value was found to be 13%, the area under the curve AUC(0-inf) amounted to 79100 ng·h/mL, the AUC(0-t) turned out to be 64700 ng·h/mL and the C0 came out at 7980 ng/mL. In the data set “in vivo [1]” (female, iv, 1 mg/kg), this molecule showed a Cz of 915 ng/mL, a Vz/f of 0.017 L/kg, a t1/2z of 10.0 h and a tz of 24 h. Besides, in “in vivo [1]” (female, po), the bioavailability worked out at 83.1%. For the same molecule, in “in vivo [1]” (female, po, 5 mg/kg), the “% AUCextra” value is recorded as 16%, the AUC(0-inf) was 320000 ng·h/mL, the AUC(0-t) worked out at 269000 ng·h/mL and the apparent clearance CL/F is 3.5 mL/min/kg. Besides, in “in vivo [1]” (female, po, 5 mg/kg), the Cmax stood at 21300 ng/mL, the Cz was found to be 3892 ng/mL, the Tmax turned out to be 2 h and the Vd/F was 0.017 L/kg. Besides, in “in vivo [1]” (female, po, 5 mg/kg), the t1/2z is on record as 9.3 h and the tz worked out at 24 h. Besides, in the data set “in vivo [1]” (male, iv, 1 mg/kg), the “% AUCextra” value is 23%, the AUC(0-inf) turned out to be 45200 ng·h/mL, the AUC(0-t) was found to be 40400 ng·h/mL and the C0 came to 5310 ng/mL. In “in vivo [1]” (male, iv, 1 mg/kg), this molecule gave a Cz of 422 ng/mL, a Vz/f of 0.01 L/kg, a t1/2z of 7.6 h and a tz of 24 h. Besides, the bioavailability in “in vivo [1]” (male, po) is 100%. Also, in the data set “in vivo [1]” (male, po, 5 mg/kg), the “% AUCextra” value was determined as 22%, the AUC(0-inf) turned out to be 233000 ng·h/mL, the AUC(0-t) is 202000 ng·h/mL and the CL/F was 3.43 mL/min/kg. In addition, in the data set “in vivo [1]” (male, po, 5 mg/kg), the peak level (Cmax) was 16000 ng/mL, the Cz was determined as 1657 ng/mL, the Tmax came to 2 h and the Vd/F worked out at 0.008 L/kg. Moreover, in the data set “in vivo [1]” (male, po, 5 mg/kg), the t1/2z came out at 6.6 h and the tz came out at 24 h. The molecule also yielded a microsomal CLint in the data set “in vitro [2]” (both) of 0.74 µL/min/mg. Besides, the microsomal CLint in “in vitro [2]” (female) was 5.8 µL/min/mg. Also, in “in vitro [2]” (male), the intrinsic clearance (microsomal CLint) was 7.67 µL/min/mg.
For `[2H]c1cc([2H])c(-c2c(F)c(F)c(NC(=O)C3=C(C(=O)O)CCC3)c(F)c2F)c([2H])c1OC(F)(F)F` [Example 3, 2-((2,3,5,6-Tetrafluoro-3′-(trifluoromethoxy)-[1,1′-biphenyl]-4-yl-2′,4′,6′-d3)carbamoyl)cyclopent-1-ene-1-carboxylic Acid], the pEC50 in the data set on SARS-CoV-2 is > 5.00.
Take `[2H]C([2H])([2H])Oc1cccc(-c2ccc(NC(=O)C3=C(C(=O)O)CCC3)c(F)c2)c1` [Example 1, 2-((3-Fluoro-3′-(methoxy-d3)-[1,1′-biphenyl]-4-yl)carbamoyl)cyclopent-1-ene-1-carboxylic Acid]: in the data set “in vivo [1]” (female, iv, 1 mg/kg), the “% AUCextra” value is recorded as 13%, the AUC(0-inf) was 80700 ng·h/mL, the AUC(0-t) stood at 66200 ng·h/mL and the C0 is 7010 ng/mL. For the same molecule, in the data set “in vivo [1]” (female, iv, 1 mg/kg), the Cz was 943 ng/mL, the Vz/f came to 0.017 L/kg, the t1/2z amounted to 9.9 h and the tz amounted to 24 h. This molecule displayed a bioavailability in the data set “in vivo [1]” (female, po) of 75.3%. Also, in the data set “in vivo [1]” (female, po, 5 mg/kg), the “% AUCextra” value worked out at 17%, the AUC(0-inf) worked out at 291000 ng·h/mL, the area under the curve AUC(0-t) came to 249000 ng·h/mL and the CL/F is 3.77 mL/min/kg. Besides, in the data set “in vivo [1]” (female, po, 5 mg/kg), the peak level (Cmax) was 19700 ng/mL, the Cz was determined as 3536 ng/mL, the Tmax stood at 2 h and the Vd/F is 0.016 L/kg. In “in vivo [1]” (female, po, 5 mg/kg), this molecule showed a t1/2z of 9.1 h and a tz of 24 h. Besides, in “in vivo [1]” (male, iv, 1 mg/kg), the “% AUCextra” value turned out to be 22%, the AUC(0-inf) was 47900 ng·h/mL, the AUC(0-t) came to 42600 ng·h/mL and the C0 was 5540 ng/mL. For the same molecule, in “in vivo [1]” (male, iv, 1 mg/kg), the Cz was determined as 437 ng/mL, the Vz/f was 0.01 L/kg, the t1/2z is listed as 7.9 h and the tz turned out to be 24 h. Besides, the bioavailability in the data set “in vivo [1]” (male, po) came to 86%. Further, in the data set “in vivo [1]” (male, po, 5 mg/kg), the “% AUCextra” value is 24%, the AUC(0-inf) turned out to be 210000 ng·h/mL, the AUC(0-t) was determined as 183000 ng·h/mL and the CL/F was 3.82 mL/min/kg. For the same molecule, in the data set “in vivo [1]” (male, po, 5 mg/kg), the Cmax is 14600 ng/mL, the Cz was 1525 ng/mL, the Tmax is 2 h and the Vd/F is 0.008 L/kg. In the data set “in vivo [1]” (male, po, 5 mg/kg), the t1/2z was 6.6 h and the tz is reported as 24 h. In “in vivo [3]” (female), this molecule displayed an AUC of 5740 ng·h/mL, a maximum concentration (Cmax) of 3440 ng/mL and a half-life of 1.6 h. In the data set “in vivo [3]” (male), this molecule displayed an AUC of 5110 ng·h/mL, a Cmax of 4110 ng/mL and a half-life of 1.7 h. The molecule further came in with a microsomal CLint in “in vitro [4]” of 13.4 µL/min/mg. Also, in the data set “in vitro [2]” (both), the microsomal CLint came to 0.96 µL/min/mg. Further, the microsomal CLint in the data set “in vitro [2]” (female) was 5.02 µL/min/mg. In addition, in the data set “in vitro [2]” (male), the microsomal CLint was 7.69 µL/min/mg.
For `[2H]C([2H])([2H])Oc1cccc(-c2cc(F)c(NC(=O)C3=C(C(=O)O)CCC3)c(F)c2)n1` [1/10], the pEC50 with SARS-CoV-2 is 4.60 to 5.00.
On the same count and under the same terms, the same measure for `[2H]C([2H])([2H])Oc1nc(-c2cc(F)c(NC(=O)C3=C(C(=O)O)CCC3)c(F)c2)cs1` [1/8]: 4.30 to 4.60; for `[2H]C([2H])([2H])C([2H])([2H])Oc1cccc(-c2cc(F)c(NC(=O)C3=C(C(=O)O)CCC3)c(F)c2)c1` [1/3]: > 5.00; for `[2H]c1cc([2H])c(-c2ccc(NC(=O)C3=C(C(=O)O)CCC3)c(F)c2)c([2H])c1O` [Example 8, 2-((3-Fluoro-3′-hydroxy-[1,1′-biphenyl]-4-yl-2′,4′,6′-d3)carbamoyl)cyclopent-1-ene-1-carboxylic Acid]: 4.30 to 4.60.

For orientation: pEC50 means the EC50 on a negative log10 scale, so that one unit is a factor of ten. One may read the AUC(0-inf) as total exposure, with the tail of the curve extrapolated. A word on the AUC(0-t): it is exposure summed from dosing to a finite time, without extrapolation to infinity. The low end stands for low exposure, the high end for high exposure. A word on the bioavailability: it is the share of a dose that reaches the circulation, judged against a reference dose that is usually intravenous. Usually CL/F stands for the apparent clearance, not corrected for the fraction that reaches the circulation. A word on the Cmax: it is the maximum level reached in the sampled fluid or tissue. As a reminder, the Tmax is the time from dosing to the highest level. One may read the Vd/F as the volume of distribution divided by bioavailability. A word on the microsomal CLint: it is the capacity of the preparation to metabolise the compound, expressed as a volume cleared per time. In general, AUC refers to concentration integrated over time. Read a high AUC as high exposure. As a reminder, the half-life is the time needed for the level to fall by half in the phase considered. A higher half-life goes with slow decline.
